The values below come from patent US7205295B2, “Benzoxazin-3-ones and derivatives thereof as therapeutic agents” (Warner-Lambert Company LLC, priority 2002, dated 2007).

The target of this assay is T1, PI3Kγ (p101/p110γ protein) (Homo sapiens, UniProt P48736).
T1 construct: HA; made in house; host or cells: Spodoptera frugiperda (Sf9) cells, baculovirus co-infection
T1 sequence (P48736 whole entry, species assumed): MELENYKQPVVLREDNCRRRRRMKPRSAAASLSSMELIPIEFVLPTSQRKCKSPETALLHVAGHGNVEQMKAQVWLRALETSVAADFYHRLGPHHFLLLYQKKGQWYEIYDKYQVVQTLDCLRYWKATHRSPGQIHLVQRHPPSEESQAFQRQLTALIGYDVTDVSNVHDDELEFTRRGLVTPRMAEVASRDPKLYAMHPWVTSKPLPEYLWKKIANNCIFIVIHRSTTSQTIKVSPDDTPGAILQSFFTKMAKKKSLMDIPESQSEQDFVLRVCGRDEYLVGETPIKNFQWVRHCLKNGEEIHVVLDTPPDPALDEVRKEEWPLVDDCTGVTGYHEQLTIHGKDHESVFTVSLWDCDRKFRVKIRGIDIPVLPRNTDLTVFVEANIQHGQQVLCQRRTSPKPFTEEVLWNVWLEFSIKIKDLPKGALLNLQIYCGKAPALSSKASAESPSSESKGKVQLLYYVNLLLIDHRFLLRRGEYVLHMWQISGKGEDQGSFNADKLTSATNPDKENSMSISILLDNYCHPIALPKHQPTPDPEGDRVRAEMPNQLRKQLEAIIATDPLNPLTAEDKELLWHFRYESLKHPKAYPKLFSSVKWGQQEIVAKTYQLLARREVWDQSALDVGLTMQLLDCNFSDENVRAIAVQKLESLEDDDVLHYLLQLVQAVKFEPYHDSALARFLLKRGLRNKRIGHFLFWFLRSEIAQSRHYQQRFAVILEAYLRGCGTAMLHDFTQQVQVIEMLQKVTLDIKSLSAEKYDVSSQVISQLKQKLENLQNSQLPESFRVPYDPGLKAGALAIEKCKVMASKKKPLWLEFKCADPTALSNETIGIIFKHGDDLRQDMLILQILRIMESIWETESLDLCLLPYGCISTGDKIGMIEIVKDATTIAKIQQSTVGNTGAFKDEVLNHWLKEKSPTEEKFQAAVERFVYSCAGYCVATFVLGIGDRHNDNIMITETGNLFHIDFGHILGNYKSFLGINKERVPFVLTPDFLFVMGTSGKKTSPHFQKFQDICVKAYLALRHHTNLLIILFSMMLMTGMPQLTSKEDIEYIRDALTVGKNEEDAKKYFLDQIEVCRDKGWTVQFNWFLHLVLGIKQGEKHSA
T1 sequence (Q8WYR1 whole entry partner, species assumed): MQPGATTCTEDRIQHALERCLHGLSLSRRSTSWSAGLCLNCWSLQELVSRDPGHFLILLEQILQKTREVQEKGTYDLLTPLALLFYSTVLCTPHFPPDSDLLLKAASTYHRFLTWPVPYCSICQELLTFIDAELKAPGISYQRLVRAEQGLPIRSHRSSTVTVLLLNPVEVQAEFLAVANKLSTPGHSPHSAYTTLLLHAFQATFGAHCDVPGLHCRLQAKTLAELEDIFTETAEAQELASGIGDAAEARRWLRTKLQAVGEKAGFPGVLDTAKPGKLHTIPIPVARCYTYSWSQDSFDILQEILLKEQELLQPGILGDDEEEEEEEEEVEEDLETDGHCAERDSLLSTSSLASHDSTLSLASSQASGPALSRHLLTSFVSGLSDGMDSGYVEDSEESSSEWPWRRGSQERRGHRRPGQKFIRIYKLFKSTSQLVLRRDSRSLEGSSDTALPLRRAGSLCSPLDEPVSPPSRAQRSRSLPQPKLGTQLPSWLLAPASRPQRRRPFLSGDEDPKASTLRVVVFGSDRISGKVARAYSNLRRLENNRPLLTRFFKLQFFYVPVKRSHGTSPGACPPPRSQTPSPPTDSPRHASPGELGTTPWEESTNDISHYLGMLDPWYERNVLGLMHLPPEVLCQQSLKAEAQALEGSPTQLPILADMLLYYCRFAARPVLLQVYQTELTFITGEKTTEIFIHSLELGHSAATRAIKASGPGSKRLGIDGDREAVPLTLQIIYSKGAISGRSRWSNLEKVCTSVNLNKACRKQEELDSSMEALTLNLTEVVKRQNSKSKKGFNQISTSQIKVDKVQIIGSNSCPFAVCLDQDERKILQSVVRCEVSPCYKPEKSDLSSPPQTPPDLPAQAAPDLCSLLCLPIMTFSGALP
As to the kind of experiment: PI3Kγ In Vitro Kinase Assay. The class given is biochemical. To be noted: purified recombinant p101/p110γ with G protein β1/γ2 subunits; 20 μM ATP, 25 μM PIP2; 20 minutes at room temperature. On the procedure: Spodtera frugiperda cells, grown in ESF921 media, were coinfected with baculovirus expressing a glu-tagged p101 and baculovirus expressing an HA-tagged p110γ, at a 3:1 ratio of p101 baculovirus to p110γ baculovirus. Sf9 cells were grown to 1×10^7 total cells/mL in 10L bioreactors and harvested 48-72 hours post infection. Samples of infected cells were then tested for expression of p101/p110γ PI3 kinase by immunoprecipitation and Western Blot analysis methods (see below). […] NaCl was added to 150 mM, and sodium cholate was added to 1% and mixed for another 45 minutes. The lysates were clarified by centrifugation for 25 minutes at 14,000 rpm. The lysates were then loaded over anti-glu-linked Protein-G Sepaharose beads (Covance Research Products, Richmond, Calif.) using 20 mL resin/50 g cell paste. […] PI3Kγ was eluted with 6 column volumes of wash buffer that contain 100 μg/mL of a peptide that competes for binding of the glu tag. […] The fractions were stored at -80° C. until further use. Spodtera frugiperda cells were coinfected with baculovirus expressing a glu-tagged G protein β1 and baculovirus expressing a G protein […] at a 1:1 ratio of glu-tagged G protein β1 baculovirus to G protein β2 baculovirus. Sf9 cells are grown in 10 L bioreactors and harvested 48-72 hours post infection. Samples of infected cells were tested for G protein β1/β2 expression by Western Blot analysis, as described below. Cell lysates were homogenized and loaded onto a column of glu-tagged beads as in Biological Example 1 and competed off the column with a glu peptide as described in Biological Example 1. The inhibitory properties of the compounds in Table 1 were assayed in an in vitro PI3K assay. In a 96-well polypropylene plate, each well was spotted with 2 μL of […] the desired final concentration of compound in DMSO. Purified recombinant p101/p110γ protein (0.03 μg; 2.7 nM) and G protein β1/γ2 subunits (0.09 μg; 57.7 nM) for each reaction was combined in the assay buffer (30 mM HEPES, 100 mM NaCl, 1 mM EGTA, and 1 mM DTT). ATP and [γ-^32P-ATP] (0.09 μCi) were added to this mixture so that the final ATP concentration in the reaction was 20 μM. Lipid micelles were formed by sonicating phosphatidylinositol-4,5-diphosphate (PIP2), phosphatidylethanolamine (PE), and Na-cholate in the assay buffer for 10 minutes, adding MgCL2 and incubating on ice for 20 minutes, for final concentrations of 25 μM PIP2, 300 [M PE, 0.02% Na-cholate, and 10 mM MgCl2 in the reaction. The reactions were started by adding equal volumes lipid and enzyme mixture in a total volume of 50 μL, allowed to run for 20 minutes at room temperature, and stopped with 100 μL 75 mM H3PO4. The lipid product was transferred to a glass fiber filter plate and washed with 75 mM H3PO4 several times. The presence of radioactive lipid product (PIP3) was measured by adding Wallac Optiphase mix to each well and counting in a Wallac 1450 Trilux plate reader (PerkinElmer Life Sciences Inc., Boston, Mass. 02118).
In the case of `COc1cc(CN2C(=O)COc3ccc(C=C4SC(=S)NC4=O)cc32)cc(OC)c1` [Example 26, 4-(3,5-Dimethoxy-benzyl)-6-(4-oxo-2-thioxo-thiazolidin-5-ylidenemethyl)-4H-1,4-benzoxazin-3-one], the IC50 was 9 nM. Under `C[C@@H]1CCC[C@H](C)N1Cc1ccc(CN2C(=O)COc3ccc(C=C4SC(=S)NC4=O)cc32)cc1` [Example 27, 4-[4-((2S, 6R)-2,6-Dimethyl-piperidin-1-ylmethyl)-benzyl]-6-(4-oxo-2-thioxo-thiazolidin-5-ylidenemethyl)-4H-1,4-benzoxazin-3-one] stands 3 nM; under `Cc1cc(C)cc(CN2C(=O)COc3c(C)cc(C=C4SC(=S)NC4=O)cc32)c1` [Example 28, 4-(3,5-Dimethyl-benzyl)-8-methyl-6-(4-oxo-2-thioxo-thiazolidin-5-ylidenemethyl)-4H-1,4-benzoxazin-3-one], 3 nM; under `O=C1NC(=S)SC1=Cc1ccc2c(c1)N(Cc1cc(C(F)(F)F)cc(C(F)(F)F)c1)C(=O)CO2` [Example 29, 4-(3,5-Bis-trifluoromethyl-benzyl)-6-(4-oxo-2-thioxo-thiazolidin-5-ylidenemethyl)-4H-1,4-benzoxazin-3-one], 31 nM. With `Cc1cc(C)cc(CCN2C(=O)COc3ccc(C=C4SC(=S)NC4=O)cc32)c1` [Example 30, 4-[2-(3,5-Dimethylphenyl)-ethyl]-6-(4-oxo-2-thioxo-thiazolidin-5-ylidenemethyl)-4H-1,4-benzoxazin-3-one], the IC50 stood at 2 nM. For `Cc1cccc(C)c1CN1C(=O)COc2ccc(C=C3SC(=S)NC3=O)cc21` [Example 31, 4-(2,6-Dimethyl-benzyl)-6-(4-oxo-2-thioxo-thiazolidin-5-ylidenemethyl)-4H-1,4-benzoxazin-3-one] the value was 83 nM; for `CC(C)(C)c1cc(CN2C(=O)COc3ccc(C=C4SC(=S)NC4=O)cc32)cc(C(C)(C)C)c1` [Example 32, 4-(3,5-Di-tert-butyl-benzyl)-6-(4-oxo-2-thioxo-thiazolidin-5-ylidenemethyl)-4H-1,4-benzoxazin-3-one], 12 nM; for `CN1CCN(Cc2ccc(CN3C(=O)COc4ccc(C=C5SC(=S)NC5=O)cc43)cc2)CC1` [Example 33, 4-[4-(4-Methyl-piperazin-1-ylmethyl)-benzyl]-6-(4-oxo-2-thioxo-thiazolidin-5-ylidenemethyl)-4H-1,4-benzoxazin-3-one], 4 nM. For `O=C1NC(=S)SC1=Cc1ccc2c(c1)N(CCCc1ccccc1)C(=O)CO2` [Example 34, 6-(4-Oxo-2-thioxo-thiazolidin-5-ylidenemethyl)-4-(3-phenyl-propyl)-4H-1,4-benzoxazin-3-one] the value was 3 nM; for `O=C1NC(=S)SC1=Cc1ccc2c(c1)N(Cc1ccc(CN3CCN(c4ccccc4)CC3)cc1)C(=O)CO2` [Example 35, 6-(4-Oxo-2-thioxo-thiazolidin-5-ylidenemethyl)-4-[4-(4-phenyl-piperazin-1-ylmethyl)-benzyl]-4H-1,4-benzoxazin-3-one], 12 nM. For `CC(C)(C)c1ccc(CN2C(=O)COc3ccc(C=C4SC(=S)NC4=O)cc32)cc1` [Example 36, 4-(4-tert-Butyl-benzyl)-6-(4-oxo-2-thioxo-thiazolidin-5-ylidenemethyl)-4H-1,4-benzoxazin-3-one] the value was 2 nM; for `C[C@@H]1Oc2ccc(C=C3SC(=S)NC3=O)cc2N(Cc2cc(C(C)(C)C)cc(C(C)(C)C)c2)C1=O` [Example 37, (S)-4-(3,5-Di-tert-butyl-benzyl)-2-methyl-6-(4-oxo-2-thioxo-thiazolidin-5-ylidenemethyl)-4H-1,4-benzoxazin-3-one], 1620 nM. Take `O=C1NC(=S)SC1=Cc1ccc2c(c1)N(Cc1cccc(-c3ccccc3)c1)C(=O)CO2` [Example 38, 4-Biphenyl-3-ylmethyl-6-(4-oxo-2-thioxo-thiazolidin-5-ylidenemethyl)-4H-1,4-benzoxazin-3-one]: the IC50 turned out to be 6 nM.

For `Cc1cc(CN2C(=O)COc3ccc(C=C4SC(=S)NC4=O)cc32)cc(C)c1CN1CCOCC1` [Example 39, 4-(3,5-Dimethyl-4-morpholin-4-ylmethyl-benzyl)-6-(4-oxo-2-thioxo-thiazolidin-5-ylidenemethyl)-4H-1,4-benzoxazin-3-one], the half-inhibitory concentration (IC50) came to 335 nM. For `O=C1NC(=S)SC1=Cc1ccc2c(c1)N(Cc1cccc(I)c1)C(=O)CO2` [Example 40, 4-(3-Iodo-benzyl)-6-(4-oxo-2-thioxo-thiazolidin-5-ylidenemethyl)-4H-1,4-benzoxazin-3-one] the value was 15 nM; for `O=C1NC(=S)SC1=Cc1ccc2c(c1)N(Cc1cc(Br)cc(I)c1)C(=O)CO2` [Example 41, 4-(3-Bromo-5-iodo-benzyl)-6-(4-oxo-2-thioxo-thiazolidin-5-ylidenemethyl)-4H-1,4-benzoxazin-3-one], 61 nM. In the case of `Cc1cc(CN2CCOCC2)cc(CN2C(=O)COc3ccc(C=C4SC(=S)NC4=O)cc32)c1` [Example 42, 4-(3-Methyl-5-morpholin-4-ylmethyl-benzyl)-6-(4-oxo-2-thioxo-thiazolidin-5-ylidenemethyl)-4H-1,4-benzoxazin-3-one], the IC50 amounted to 41 nM. For `O=C1NC(=S)SC1=Cc1ccc2c(c1)N(Cc1cc(-c3ccccc3)cc(-c3ccccc3)c1)C(=O)CO2` [Example 43, 6-(4-Oxo-2-thioxo-thiazolidin-5-ylidenemethyl)-4-1,1′,3′,1″-terphenyl-5′-ylmethyl-4H-1,4-benzoxazin-3-one] the value was 1440 nM; for `O=C1NC(=S)SC1=Cc1ccc2c(c1)N(Cc1cc(OS(=O)(=O)C(F)(F)F)cc(OS(=O)(=O)C(F)(F)F)c1)C(=O)CO2` [Example 44, Trifluoro-methanesulfonic acid 3-[3-oxo-6-(4-oxo-2-thioxo-thiazolidin-5-ylidenemethyl)-2,3-dihydro-1,4-benzoxazin-4-ylmethyl]-5-trifluoromethanesulfonyloxy-phenyl ester], 265 nM. In the case of `CC(C)(C)c1cc(CN2C(=O)COc3ccc(C=C4SC(=S)NC4=O)cc32)cc(C(C)(C)C)n1` [Example 45, 4-(2,6-Di-tert-butyl-pyridin-4-ylmethyl)-6-(4-oxo-2-thioxo-thiazolidin-5-ylidenemethyl)-4H-1,4-benzoxazin-3-one], the IC50 came to 336 nM.

For the compound `O=C1NC(=S)SC1=Cc1cc(F)c2c(c1)N(Cc1ccccc1)C(=O)CO2` [Example 46, 4-Benzyl-8-fluoro-6-(4-oxo-2-thioxo-thiazolidin-5-ylidenemethyl)-4H-1,4-benzoxazin-3-one], the IC50 is 8 nM. For the compound `CC(C)(C)c1cc(CN2C(=O)COc3c(Cl)cc(C=C4SC(=S)NC4=O)cc32)cc(C(C)(C)C)c1` [Example 47, 8-Chloro-4-(3,5-di-tert-butyl-benzyl)-6-(4-oxo-2-thioxo-thiazolidin-5-ylidenemethyl)-4H-1,4-benzoxazin-3-one], the concentration for half-maximal inhibition (IC50) is 320 nM. As to `CN1CCN(Cc2cccc(CN3C(=O)COc4ccc(C=C5SC(=S)NC5=O)cc43)c2)CC1` [Example 48, 4-[3-(4-Methyl-piperazin-1-ylmethyl)-benzyl]-6-(4-oxo-2-thioxo-thiazolidin-5-ylidenemethyl)-4H-1,4-benzoxazin-3-one], the IC50 was 42 nM.

With `O=C1COc2c(Cl)cc(C=C3SC(=S)NC3=O)cc2N1` [Example 49, 8-Chloro-6-(4-oxo-2-thioxo-thiazolidin-5-ylidenemethyl)-4H-1,4-benzoxazin-3-one], the IC50 was 61 nM. For `O=C1NC(=S)SC1=Cc1cc(Cl)c2c(c1)N(Cc1ccccc1)C(=O)CO2` [Example 50, 4-Benzyl-8-chloro-6-(4-oxo-2-thioxo-thiazolidin-5-ylidenemethyl)-4H-1,4-benzoxazin-3-one] the value was 10 nM; for `COc1cc(C=C2SC(=S)NC2=O)cc2c1OCC(=O)N2Cc1cc(C(C)(C)C)cc(C(C)(C)C)c1` [Example 51, 4-(3,5-Di-tert-butyl-benzyl)-8-methoxy-6-(4-oxo-2-thioxo-thiazolidin-5-ylidenemethyl)-4H-1,4-benzoxazin-3-one], 165 nM.
